Laboratory results reported in paper PMC7940618, “Specific inhibition of the Survivin–CRM1 interaction by peptide-modified molecular tweezers” (Nature Communications, 2021).
Values joined by “and” are separate entries in the source; they are usually repeats but may differ in a detail not shown here. Equal entries are not always repeated. Where two headings read alike, the source gives them in different places. Peptide text beside a SMILES is read from it.

Legend:
Type in all cases: binding
[1] = target: T1, GST-Survivin120-K90/103T–CRM1 interaction (Homo sapiens, UniProt O15392, K103T/K90T); assay: Pull-down with GST-Survivin120-K90/103T bait, CRM1 and RanQ69L; conditions: for CRM1: Peak area determined with ImageJ / CRM1 intensity_normalised on GST-Surv intensity (samples 1-14) / CRM1: Control w/o GST-Survivin subtracted (sample 16 or 23): CRM1 band; for CRM1: Peak area determined with ImageJ / CRM1 intensity_normalised on GST-Surv intensity (samples 1-14) / CRM1: Control w/o GST-Survivin subtracted (sample 16 or 23) / CRM1 intensity_normalised on GST-Surv intensity (samples 1-14) and CRM1 intensity w/o incubation (sample 15 or 22): samples 22-28 (K90/103T); for CRM1: Control w/o GST-Survivin subtracted (sample 16 or 23): sample 23 subtracted; for GST-Surv: Peak area determined with ImageJ / GST-Surv: Control w/o GST-Survivin subtracted (sample 2 or 9): GST-Surv bait band; for GST-Surv: Peak area determined with ImageJ: samples 8-14 (K90/103T according to the summary in r39-r41); for GST-Surv: Control w/o GST-Survivin subtracted (sample 2 or 9): samples 8-14 (K90/103T), sample 9 subtracted; for Normalised CRM1 intensity, summary of replicates I and II: K90/103T, w/o tweezer = 100, replicates I and II
T1 construct: the only published NMR structure originated from a truncated Survivin (aa 1-120) with improved solubility; made in house; host or cells: Escherichia coli soluBL21
Protocol: Next, we investigated whether tweezer inhibition of the export complex assembly is compromised upon lysine mutations near the NES. Therefore, pull-down experiments were performed with recombinant GST-tagged Survivin120 wildtype and K90/103T as bait proteins, tweezers, recombinant CRM1 and RanQ69L (Fig. 7g). Controls lacking the Survivin baits were included, as well as isolated peptides without tweezer (Fig. 7h). […] However, for the double lysine mutant GST-Survivin120-K90/103T even the tweezer conjugates lost most of their inhibitory power toward the essential Survivin–CRM1 interaction.
All pull-down assays were performed at room temperature in pull-down buffer (PBS, pH 7.4, 1 mM DTT, 0.02 Triton X-100). GST fusion proteins were immobilized on 50 μL GSH-coated Sepharose 4B beads from GE Healthcare. The beads were prior equilibrated and blocked with 500 μL pull-down blocking buffer (PBS, pH 7.4, 1 (w/v) BSA, 1 mM DTT, 0.02 (v/v) Triton X-100) for 1 h to prevent unspecific binding.
For analysis of the effective inhibitory tweezer concentration, 200 μg 293T lysate with overexpressed Survivin142-HA was preincubated without ligand or with different concentrations (10 nM to 200 μM) of unmodified tweezer TW, TW-ELTL, TW-ELTLGEFL, or TW-LFEEGLLT for 1 h and then mixed with 35 μg GST-CRM1, 55 μg RanQ69L, and 2 mM dGTP. GSH-beads were incubated with this protein mixture for 2 h under rotation. For analysis of tweezer specificity, 40 μg GST-Survivin120 or GST-Survivin120-K90/103T point mutant was pre-bound to equilibrated GSH-beads in 500 μL pull-down buffer, containing additionally either no ligand or 50 μM unmodified tweezer TW, TW-ELTL, TW-ELTLGEFL, or peptides ELTL and ELTLGEFL, for 1 h under rotation. After washing and blocking, GSH-beads were incubated with a protein mixture consisting of 2 mM dGTP, 50 μg CRM1, and 50 μg RanQ69L for 2 h under rotation.
Samples of input and beads taken during pull-down experiments were ran on 12.5 SDS gels and transferred onto 0.2 µM PVDF membranes (Amersham Hybond P 0.2) using a PerfectBlue™ tank electro blotter (Peqlab) at 350 mA for 150 min. Membranes were blocked for 1 h using 5% milk powder in TBS buffer containing 0.1% Tween-20. Next, membranes were incubated in primary antibodies against HA (anti-HA, mouse monoclonal, BioLegend, Covance MMS-101R, 1:1,000), GST (anti-GST, mouse monoclonal, Santa Cruz Biotechnology Inc., sc-57753, 1:1000) or CRM1 (anti-CRM1, rabbit polyclonal, Novus Biologicals Ltd., NB100-79802, 1:10,000) overnight at 4 °C. Secondary horseradish peroxidase (HRP)-conjugated antibody (anti-mouse IgG-HRP, sheep, GE Healthcare, NXA931 or anti-rabbit IgG-HRP, donkey, GE Healthcare, NA934) was then added (1:10,000) for 1 h at room temperature. Chemiluminescence was detected and imaged using the Pierce ECL Plus Western Blotting Substrate kit (Thermo Fisher Scientific) and Chemidoc system (Bio-Rad) or film processor Cawomat 2000 IR (CAWO). Western blots were analyzed by densitometric analysis with ImageJ version 1.52p (U.S. National Institutes of Health), measuring the mean gray intensity of protein bands. Uncropped and unprocessed scans of western blots are deposited in the Source Data file.

Survivin120 = target: T2, Survivin120 (Homo sapiens, UniProt O15392); assay: ITC titration of tweezers with Survivin120 wildtype; conditions: ITC, Survivin120 WT; for Kd: PBS pH 7.4, 25 °C, one set of sites model, mean ± SEM of fit
T2 construct: the only published NMR structure originated from a truncated Survivin (aa 1-120) with improved solubility; GST with PreScission site (N); made in house; host or cells: Escherichia coli soluBL21
Protocol: The interaction between the tweezers and Survivin was studied by isothermal titration calorimetry (ITC) and NMR spectroscopy. So far, the only published NMR structure originated from a truncated Survivin (aa 1-120) with improved solubility. […] Since the truncated construct still contains all relevant parts of the protein and gives excellent NMR spectra (SI5), we chose it for all our in vitro experiments and denote it as Survivin120 in the following results.
(§1) ITC was performed with a MicroCal iTC200 from Malvern Panalytical in PBS, pH 7.4 at 25 °C with molecular tweezers in the cell and Survivin120 in the titration syringe. The protein was dialyzed overnight at 4 °C against the PBS buffer. Ligands were dissolved in the respective dialysis buffer. Then, 300 µM TW were titrated with 300 µM Survivin120 WT or 321 µM Survivin120 K90/103T. Then, 100 µM TW-ELTL, TW-ELTLGEFL, or TW-LFEEGLLT was titrated with 1.2 mM Survivin120 WT or 2.5 mM Survivin120 K90/103T. For reverse titrations, either 33.3 or 34.4 µM Survivin120 in the cell was titrated with 5 mM TW or TW-ELTL in the syringe, respectively. All titrations were performed in PBS, pH 7.4 at 25 °C. Then, 1.5 μL injections were used with 120 s spacing time between injections. The injection rate was set to 0.5 µL/s and the reference power was 5 µcal/s. ITC thermograms were fitted to a one set of sites model with the software Origin (v7.0552) provided with the instrument. Heat of dilution was subtracted as constant from each data point.
(§2) ITC thermograms were fitted to a one set of sites model with the software Origin provided with the instrument. Heat of dilution was subtracted as constant from each data point. From three independent experiments (n = 3), one representative example was depicted, and thermodynamic data were derived thereof. For pull-down experiments, only the representative quantification of the depicted western blot is shown. […] Fluorescence anisotropy graphs were generated with GraphPad Prism 5.0. Depicted error bars represent the standard deviation of three independent titrations.

Survivin120 K90/103T = target: T3, Survivin120 K90/103T (Homo sapiens, UniProt O15392, K103T/K90T); assay: ITC titration of tweezers with Survivin120 K90/103T mutant
T3 construct: the only published NMR structure originated from a truncated Survivin (aa 1-120) with improved solubility; GST with PreScission site (N); made in house; host or cells: Escherichia coli soluBL21
Source text: If the tweezer-based inhibitors indeed bind to lysines/arginines flanking the NES (K90, K91, K103, R106), their mutation to, e.g., threonine, should abolish the observed effects. For this reason, we generated double and triple Survivin120 mutants lacking these putative tweezer anchor points. Unfortunately, most double mutants and especially the triple mutants were unfolded as evidenced by 1D ^1H NMR (SI6); finally, the correctly folded double threonine mutant Survivin120 K90/103T was chosen for further investigation. […] Next, binding of FAM-labeled tweezers (SI3) to either Survivin120 wildtype or the K90/103T mutant was studied by fluorescence anisotropy (Fig. 7d–f). […] We conclude that lysines 90 and 103 are indeed essential for efficient tweezer binding.
as §1, §2

[2] = fraction of sample 22 (w/o tweezer)

T2 sequence (O15392 1-120): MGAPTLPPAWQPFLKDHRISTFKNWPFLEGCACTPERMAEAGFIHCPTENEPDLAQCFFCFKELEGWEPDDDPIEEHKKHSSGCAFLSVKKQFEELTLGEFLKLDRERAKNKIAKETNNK
T1 sequence (O15392 1-120 K90T/K103T): as the sequence (O15392 1-120) above, with K90T, K103T counted along it
T3 sequence (O15392 1-120 K90T/K103T): as the sequence (O15392 1-120) above, with K90T, K103T counted along it

SMILES | CRM1: Peak area determined with ImageJ [1] | CRM1 intensity_normalised on GST-Surv intensity (samples 1-14) [1] | CRM1: Control w/o GST-Survivin subtracted (sample 16 or 23) [1] | GST-Surv: Peak area determined with ImageJ [1] | GST-Surv: Control w/o GST-Survivin subtracted (sample 2 or 9) [1] | Normalised CRM1 intensity, summary of replicates I and II [1] | CRM1 intensity_normalised on GST-Surv intensity (samples 1-14) and CRM1 intensity w/o incubation (sample 15 or 22) [1, 2] | CRM1 intensity_normalised on GST-Surv intensity (samples 1-14) and CRM1 intensity w/o incubation (sample 15 or 22) ([1]; w/o tweezer = 100) [%] | -TΔS (Survivin120) [kcal] | ΔG (Survivin120) [kcal] | ΔH (Survivin120) [kcal] | Kd (Survivin120) [µM] | ΔH (Survivin120 K90/103T; ITC, Survivin120 K90/103T) [kcal] | Kd (Survivin120 K90/103T; ITC, Survivin120 K90/103T, PBS pH 7.4, 25 °C, one set of sites model, read-out: KD) [µM] | Kd (Survivin120 K90/103T) [µM]
O=P(O)(O)Oc1c2c(c(OP(=O)(O)O)c3c1C1CC3c3cc4c(cc31)C1CC4c3ccccc31)C1CC2c2cc3c(cc21)C1CC3c2ccccc21 [TW, reference compound] | 39038.4 | 0.5728 | 34329.1 | 62533.1 | 59934 | 90.4067% | 0.9041 | 90.4067 | -4.7 | -6.0 | -1.3 | 38 | -0.6 | 49 ± 5 | 
CC(C)C[C@H](NC(=O)[C@@H](NC(=O)[C@H](CC(C)C)NC(=O)[C@H](CCC(=O)O)NC(=O)Cn1cc(CCOP(=O)(O)Oc2c3c(c(OP(=O)(O)O)c4c2[C@H]2C[C@@H]4c4cc5c(cc42)[C@H]2C[C@@H]5c4ccccc42)[C@H]2C[C@@H]3c3cc4c(cc32)[C@H]2C[C@@H]4c3ccccc32)nn1)[C@@H](C)O)C(=O)O [TW-ELTL] | 11197.5 | 0.3807 | 6488.31 | 19643.8 | 17044.7 | 60.0833% | 0.6008 | 60.0833 | -3.8 | -6.3 | -2.5 | 24 | -1.3 |  | 50 ± 10
CC(C)C[C@H](NC(=O)[C@H](Cc1ccccc1)NC(=O)[C@H](CCC(=O)O)NC(=O)CNC(=O)[C@H](CC(C)C)NC(=O)[C@@H](NC(=O)[C@H](CC(C)C)NC(=O)[C@H](CCC(=O)O)NC(=O)Cn1cc(CCOP(=O)(O)Oc2c3c(c(OP(=O)(O)O)c4c2C2CC4c4cc5c(cc42)C2CC5c4ccccc42)C2CC3c3cc4c(cc32)C2CC4c3ccccc32)nn1)[C@@H](C)O)C(=O)O [TW-ELTLGEFL] (HELM PEPTIDE1{[O=C(Cn1cc(CCOP(=O)(O)Oc2c3c(c(OP(=O)(O)O)c4c2C2CC4c4cc5c(cc42)C2CC5c4ccccc42)C2CC3c3cc4c(cc32)C2CC4c3ccccc32)nn1)[*:2]].E.L.T.L.G.E.F.L}$$$$V2.0) |  |  |  |  |  | 109.825% and 111.087% |  | 109.825 |  |  |  | 19 |  |  | 36 ± 10
